The EC50 is the concentration that produces a half-maximal response. Read a low EC50 as greater potency.

Chain of cellular IDO1 in HeLa cells (P14902 whole entry): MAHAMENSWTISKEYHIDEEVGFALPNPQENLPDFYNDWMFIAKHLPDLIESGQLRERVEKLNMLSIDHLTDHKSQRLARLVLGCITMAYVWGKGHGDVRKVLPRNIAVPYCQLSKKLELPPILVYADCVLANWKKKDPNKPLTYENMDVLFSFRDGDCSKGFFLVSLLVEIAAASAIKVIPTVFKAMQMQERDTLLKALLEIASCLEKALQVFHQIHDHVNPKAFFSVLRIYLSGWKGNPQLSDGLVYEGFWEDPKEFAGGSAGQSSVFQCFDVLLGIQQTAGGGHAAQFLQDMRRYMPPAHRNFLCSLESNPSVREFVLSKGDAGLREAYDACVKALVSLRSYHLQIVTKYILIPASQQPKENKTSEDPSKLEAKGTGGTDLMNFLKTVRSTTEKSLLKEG

The target in this assay is cellular IDO1 in HeLa cells (Homo sapiens (Human), UniProt P14902). As to the kind of experiment: HeLa Cell-Based IDO1 Kyn (Kynurenine) Production Assay. The following applies: IFN-γ induced IDO1, 48 hours incubation, Kyn absorbance at 480 nm. The protocol:
HeLa Cell-Based IDO1 Kyn (Kynurenine) Production Assay:
The inhibitory activity of IDO1 inhibitors is determined by using a colorimetric reaction to measure Kyn generated from L-Trp (L-Tryptophon) oxidation by cellular IDO1 in HeLa cells after induction of IDO1 expression by IFN-γ.
Hela cells were obtained from the American Type Culture Collection and recovered in 10% FBS-containing phenol red-free DMEM medium. Cells were plated onto a 96-well plate (100 μl/well) at 8000 cells per well and kept at 37° C. in a humidified incubator supplied with 5% CO2. 4 hours later, Human recombinant IFN-γ (8901SC, CST) was added to cells (final concentration 100 ng/mL) to stimulate endogenous IDOL. Compounds at different concentrations diluted in dimethylsulfoxide (DMSO) were added simultaneously with IFN-γ and 0.4 mM L-Trp. Cells were kept at 37° C. in a humidified incubator supplied with 5% CO2. After 48 hours of incubation, 100 μl supernatant from each well was removed to a new plate. The protein in the medium was precipitated with the addition of 8 μl 6N trichloroacetic acid. The plate was incubated at 60° C. for 30 minutes and then centrifugation at 2500 rpm for 10 minutes to remove sediments. 80 μl supernatants were carefully removed to a new clean plate and added with an equal volume of 2% 4-(Dimethylamino)benzaldehyde (D2004, sigma) dissolved in glacial acetic acid. The absorbance at 480 nm wavelength derived from Kyn was measured using a PHERAstar FS plate reader (BMG LABTECH). The IC5C for each compound was derived from fitting the dose-response data to the four-parameter logistic model by using XLfit software (IDBS).
Molecule `Fc1ccc2nccc([C@H]3CC[C@H](Cc4nc5cc(C(F)(F)F)ccc5[nH]4)CC3)c2c1` [Example A3a, 6-fluoro-4-((1s,4s)-4-((5-(trifluoromethyl)-1H-benzo[d]imidazol-2-yl)methyl)cyclohexyl)quinoline] registered a concentration giving a half-maximal response (EC50) of 72 nM.
For `C[C@@H](c1nc2ccc(Cl)cc2[nH]1)C1CCC(c2cnc3ccccc3c2)CC1` (stereo partly drawn) [Example B25b, (R)-3-(4-(1-(6-chloro-1H-benzo[d]imidazol-2-yl)ethyl)cyclohexyl)quinoline] the value was 3.1 nM; for `COC(=O)c1c(F)ccc2[nH]c([C@@H](C)[C@H]3CC[C@@H](c4ccnc5ccc(F)cc54)CC3)nc12` [Example B198, methyl 5-fluoro-2-((S)-1-((1s,4R)-4-(6-fluoroquinolin-4-yl)cyclohexyl)ethyl)-1H-benzo[d]imidazole-4-carboxylate], 984 nM.
The result for `C[C@@H](c1nc2cc(F)c(F)c(Cl)c2[nH]1)[C@H]1CC[C@H](c2ccnc3ccc(F)cc32)CC1` [Example B190, 4-((1R,4r)-4-((R)-1-(7-chloro-5,6-difluoro-1H-benzo[d]imidazol-2-yl)ethyl)cyclohexyl)-6-fluoroquinoline] reads 5.74 nM; that for `C[C@@H](c1nc2cc(C(F)(F)F)ccc2[nH]1)[C@H]1CC[C@@H](c2ccnc3ccc(F)cc32)CC1` [Example B4, 6-fluoro-4-((1S,4s)-4-((R)-1-(5-(trifluoromethyl)-1H-benzo[d]imidazol-2-yl)ethyl)cyclohexyl)quinoline], 1.4 nM; that for `COC1CCC(NC(=O)c2ccc3[nH]c(C(C)[C@H]4CC[C@@H](c5ccnc6ccc(F)cc65)CC4)nc3c2)CC1` (some centres unmarked) [Example B185, 2-(1-((1s,4s)-4-(6-fluoroquinolin-4-yl)cyclohexyl)ethyl)-N-(4-methoxycyclohexyl)-1H-benzo[d]imidazole-5-carboxamide], 122 nM.
On to `C[C@@H](c1nc2ccc(S(C)(=O)=O)cc2[nH]1)[C@H]1CC[C@H](c2ccnc3ccc(F)cc32)CC1` [Example B178, 6-fluoro-4-((1R,4r)-4-((R)-1-(6-(methylsulfonyl)-1H-benzo[d]imidazol-2-yl)ethyl)cyclohexyl)quinoline], for which a half-maximal response (EC50) required 283 nM.
The result for `C[C@@H](c1nc2cc(F)c(F)c(Cl)c2[nH]1)[C@H]1CC[C@@H](c2ccnc3ccc(F)cc32)CC1` [Example B189, 4-((1R,4s)-4-((S)-1-(7-chloro-5,6-difluoro-1H-benzo[d]imidazol-2-yl)ethyl)cyclohexyl)-6-fluoroquinoline] reads 45.9 nM.
For `C[C@@H](c1nc2cc3ccccc3cc2[nH]1)[C@H]1CC[C@@H](c2ccnc3ccc(F)cc32)CC1` [Example B173, 2-((R)-1-((1s,4S)-4-(6-fluoroquinolin-4-yl)cyclohexyl)ethyl)-1H-naphtho[2,3-d]imidazole] the value was 12.7 nM; for `Fc1ccc2nccc(C3CCC(c4nc5cc(Cl)c(F)cc5[nH]4)CC3)c2c1` (single isomer, unassigned) [Example C1a, 4-(4-(5-chloro-6-fluoro-1H-benzo[d]imidazol-2-yl)cyclohexyl)-6-fluoroquinoline], more than 10000 nM.
The result for `Fc1ccc(C2CCC(Cc3nc4cc(C5CC5)ccc4[nH]3)CC2)c2cccnc12` (centres unmarked) [Example A25, 5-(4-((5-cyclopropyl-1H-benzo[d]imidazol-2-yl)methyl)cyclohexyl)-8-fluoroquinoline] reads 268 nM; that for `CC(c1nc2c(ccc3ccccc32)[nH]1)[C@H]1CC[C@@H](c2ccnc3ccc(F)cc32)CC1` (some centres unmarked) [B175], 1.7 nM.
The molecule `COC(=O)c1cccc2nc([C@@H](C)[C@H]3CC[C@@H](c4ccnc5ccc(F)cc54)CC3)[nH]c12` [B208] had an EC50 of more than 1000 nM.
The result for `C[C@@H](c1nc2cc(-c3ccccc3)c(F)cc2[nH]1)[C@H]1CC[C@@H](c2ccnc3ccc(F)cc32)CC1` [B218] reads 1.8 nM; that for `FC(F)(F)c1cc(C2CCC(Cc3nc4cc(Cl)ccc4[nH]3)CC2)ccn1` (centres unmarked) [Example A29, 5-chloro-2-((4-(2-(trifluoromethyl)pyridin-4-yl)cyclohexyl)methyl)-1H-benzo[d]imidazole], 179 nM; that for `CC(c1nc2cc3c(cc2[nH]1)CCC(=O)N3)[C@H]1CC[C@@H](c2ccnc3ccc(F)cc32)CC1` (some centres unmarked) [Example B159, 2-(1-((1s,4s)-4-(6-fluoroquinolin-4-yl)cyclohexyl)ethyl)-1,5,7,8-tetrahydro-6H-imidazo[4,5-g]quinolin-6-one], 67.7 nM.
The result for `CC(c1nc2ccc(S(C)(=O)=O)cc2[nH]1)[C@H]1CC[C@@H](c2ccnc3ccc(F)cc32)CC1` (some centres unmarked) [Example B167, 6-fluoro-4-((1s,4s)-4-(1-(6-(methylsulfonyl)-1H-benzo[d]imidazol-2-yl)ethyl)cyclohexyl)quinoline] reads 18.8 nM; that for `COC1CCC(NC(=O)c2ccc3[nH]c(C(C)[C@H]4CC[C@H](c5ccnc6ccc(F)cc65)CC4)nc3c2)CC1` (some centres unmarked) [Example B186, 2-(1-((1r,4r)-4-(6-fluoroquinolin-4-yl)cyclohexyl)ethyl)-N-(4-methoxycyclohexyl)-1H-benzo[d]imidazole-5-carboxamide], 193 nM; that for `Fc1ccc2nccc([C@H]3CC[C@@H](c4nc5cc(Cl)ccc5[nH]4)CC3)c2c1` [Example C2b, 4-((1s,4s)-4-(5-chloro-1H-benzo[d]imidazol-2-yl)cyclohexyl)-6-fluoroquinoline], 11 nM.
For `C[C@H](c1nc2ccc(C#N)cc2[nH]1)[C@H]1CC[C@@H](c2ccnc3ccc(F)cc32)CC1` [Example B8, 2-((S)-1-((1s,4R)-4-(6-fluoroquinolin-4-yl)cyclohexyl)ethyl)-1H-benzo[d]imidazole-6-carbonitrile] the value was 6.9 nM; for `C[C@H](c1nc2cc(F)c(-c3cccnc3)cc2[nH]1)[C@H]1CC[C@@H](c2ccnc3ccc(F)cc32)CC1` [B152], 62.9 nM; for `CC(c1nc2cc(C(=O)NC3CC3)c(F)c(F)c2[nH]1)[C@H]1CC[C@@H](c2ccnc3ccc(F)cc32)CC1` (some centres unmarked) [B192], 8.97 nM.
Take `Fc1ccc2nccc([C@H]3CC[C@@H](Cc4nc5cc6c(cc5[nH]4)OCO6)CC3)c2c1` [Example A7b, 6-(((1s,4s)-4-(6-fluoroquinolin-4-yl)cyclohexyl)methyl)-5H-[1,3]dioxolo[4′,5′:4,5]benzo[1,2-d]imidazole]: a half-maximal effect (EC50) was put at 3.6 nM.
`C[C@@H](c1nc2ccc(NS(C)(=O)=O)cc2[nH]1)[C@H]1CC[C@@H](c2ccnc3ccc(F)cc32)CC1` [Example B180, N-(2-((R)-1-((1r,4R)-4-(6-fluoroquinolin-4-yl)cyclohexyl)ethyl)-1H-benzo[d]imidazol-6-yl)methanesulfonamide]: the concentration for a half-maximal effect (EC50) is 384 nM.
`Cc1cc(C(=O)NC2CCC2)cc2[nH]c(C(C)C3CCC(c4ccnc5ccc(F)cc45)CC3)nc12` (centres unmarked) [Example B206, N-cyclobutyl-2-(1-(4-(6-fluoroquinolin-4-yl)cyclohexyl)ethyl)-4-methyl-1H-benzo[d]imidazole-6-carboxamide]: a half-maximal effect (EC50) was put at 27.1 nM.
`Cc1c(Br)ccc2[nH]c(C[C@H]3CC[C@@H](c4ccnc5ccc(F)cc54)CC3)nc12` [Example A11b, 4-((1s,4s)-4-((5-bromo-4-methyl-1H-benzo[d]imidazol-2-yl)methyl)cyclohexyl)-6-fluoroquinoline] registered an EC50 of 14 nM.
For `Cc1ccc2[nH]c(C3CCC(c4ccnc5ccc(F)cc45)CC3)nc2c1` (centres unmarked) [Example C3, 6-fluoro-4-(4-(5-methyl-1H-benzo[d]imidazol-2-yl)cyclohexyl)quinoline] the value was 16 nM; for `CC(c1nc2cc(F)c(F)c(Cl)c2[nH]1)[C@H]1CC[C@@H](c2ccnc3ccc(F)cc32)CC1` (some centres unmarked) [Example B203, 4-((1s,4s)-4-(1-(7-chloro-5,6-difluoro-1H-benzo[d]imidazol-2-yl)ethyl)cyclohexyl)-6-fluoroquinoline], 8.8 nM.
The result for `Clc1ccc2nc(C3CC4CC3CC4c3ccccc3)[nH]c2c1` (centres unmarked) [Example D1, 6-chloro-2-(5-phenylbicyclo[2.2.1]heptan-2-yl)-1H-benzo[d]imidazole] reads 1090 nM; that for `Clc1ccc2[nH]c(CCC3CC4CC3CC4c3ccccc3)nc2c1` (centres unmarked) [Example D2, 5-chloro-2-(2-(5-phenylbicyclo[2.2.1]heptan-2-yl)ethyl)-1H-benzo[d]imidazole], 69 nM.
The result for `C[C@H](c1nc2cc(F)c(F)cc2[nH]1)[C@H]1CC[C@@H](c2ccnc3ccc(F)cc32)CC1` [Example B1b, 4-((1R,4s)-4-((S)-1-(5,6-difluoro-1H-benzo[d]imidazol-2-yl)ethyl)cyclohexyl)-6-fluoroquinoline] reads 59 nM; that for `C[C@@H](c1nc2cc(C(=O)NC3CC3)c(F)cc2[nH]1)[C@H]1CC[C@@H](c2ccnc3ccc(F)cc32)CC1` [B158], 6.9 nM.

(Values after patent US11472788B2, “Benzoimidazoles as selective inhibitors of indoleamine 2,3-dioxygenases” (BEIGENE, LTD., priority 2017, dated 2022).)
